32 compounds from BindingDB's records for doi:10.1021/acs.jmedchem.8b01394 (Roche Pharma Research and Early Development, 2018) can be followed below.

One assay is described as follows: Inhibition of RSV Long fusion protein assessed as decrease in virus induced syncytium formation in infected human HeLa/M cells.
With `Cc1ccc(O)c(Cn2c(NC3CCN(CCN)CC3)nc3c(C)cccc32)n1` [JNJ 2408068], the EC50 was 0.16 nM.

A further assay in a line: Inhibition of RSV Long fusion protein assessed as protection against virus induced cytopathic effect in infected human Hep2 cells after 5 days by CCK8 assay.
In the case of `Cc1ccc2nc(N3CCS(=O)(=O)c4ccccc4C3)cc(NCCCCN)c2c1`, the EC50 was 7 nM.

As for `Cc1ccc2nc(N3CCS(=O)(=O)c4ccccc4C3)cc(NCCCCCN)c2c1`, the EC50 amounted to 27 nM.

As to `CS(=O)(=O)c1ccc2nc(N3CCCc4ccccc4C3)cc(NCCN)c2c1`, the EC50 came out at 5600 nM.

Consider `NCCNc1cc(N2CCS(=O)(=O)c3ccccc3C2)nc2ccccc12`, for which the EC50 worked out at 11 nM.

As to `NCCNc1cc(N2CCOc3ccccc3C2)nc2ccccc12`, the EC50 stood at 230 nM.

As for `Cc1ccc2nc(N3CCC(F)(F)c4ccccc4C3)cc(NCCN)c2c1`, the EC50 came out at 62 nM.

Regarding `NCC(O)CNc1cc(N2CCc3ccccc3C2)nc2ccccc12` (stereo not drawn), the EC50 was determined as 220 nM.

On to `NCC(O)CNc1cc(N2Cc3ccccc3C2)nc2ccccc12` (stereo not drawn), for which the EC50 was over 100000 nM.

For `NCC(O)CNc1cc(N2CCCc3ccccc3C2)nc2ccccc12` (stereo not drawn), the EC50 worked out at 220 nM.

Take `OCC(O)CNc1cc(N2CCc3ccccc3C2)nc2ccccc12` (stereo not drawn): the EC50 came to 22000 nM.

As for `CC(O)CNc1cc(N2CCc3ccccc3C2)nc2ccccc12` (stereo not drawn), the EC50 was over 100000 nM.

In the case of `NCCNc1cc(N2CCc3ccccc3C2)nc2ccccc12`, the EC50 came to 2300 nM.

Take `NCCCCNc1cc(N2CCc3ccccc3C2)nc2ccccc12`: the EC50 was over 100000 nM.

In the case of `NC(=O)NCCNc1cc(N2CCc3ccccc3C2)nc2ccccc12`, the EC50 was 15000 nM.

Regarding `NCCNc1cc(N2CCCc3ccccc3C2)nc2ccccc12`, the EC50 was determined as 200 nM.

For `NCCNc1cc(N2CCCc3ccccc3C2)nc2cccc(Cl)c12`, the EC50 turned out to be 6600 nM.

As for `NCCNc1cc(N2CCCc3ccccc3C2)nc2cc(Cl)ccc12`, the EC50 was over 3200 nM.

`NCCNc1cc(N2CCCc3ccccc3C2)nc2c(Cl)cccc12`: the EC50 amounted to 1100 nM.

In the case of `Cc1ccc2nc(N3CCCc4ccccc4C3)cc(NCCN)c2c1`, the EC50 came to 73 nM.

Take `NCCNc1cc(N2CCCc3ccccc3C2)nc2ccc(F)cc12`: the EC50 turned out to be 1500 nM.

For `NCCNc1cc(N2CCCc3ccccc3C2)nc2ccc(C(F)(F)F)cc12`, the EC50 amounted to 1100 nM.

`Cc1ccc2nc(N3CC(=O)Nc4ccccc4C3)cc(NCCN)c2c1`: the EC50 came to 310 nM.

`Cc1ccc2nc(N3CCCc4cc(F)ccc4C3)cc(NCCN)c2c1`: the EC50 is 460 nM.

With `Cc1ccc2nc(N3CCCc4ccc(F)cc4C3)cc(NCCN)c2c1`, the EC50 worked out at 100 nM.

Regarding `Cc1ccc2nc(N3CCS(=O)(=O)c4ccccc4C3)cc(NCCCN)c2c1`, the EC50 was found to be 1 nM.

For the compound `NCCCNc1cc(N2CCc3ccccc3C2)nc2ccccc12`, the EC50 amounted to 7800 nM.

Regarding `N=C(N)NCCNc1cc(N2CCc3ccccc3C2)nc2ccccc12`, the EC50 amounted to 2300 nM.

As for `NCCNc1cc(N2CCCc3ccccc3C2)nc2ccc(Cl)cc12`, the EC50 turned out to be 120 nM.

`COc1ccc2nc(N3CCCc4ccccc4C3)cc(NCCN)c2c1`: the EC50 turned out to be 320 nM.

Turning to `Cc1ccc2nc(N3CCNc4ccccc4C3)cc(NCCN)c2c1`, the EC50 came out at 230 nM.

Turning to `Cc1ccc2nc(N3CCS(=O)(=O)c4ccccc4C3)cc(NCCN)c2c1`, the EC50 stood at 4 nM.

The nature of a further assay: Inhibition of RSV Long fusion protein L138F mutant assessed as protection against virus induced cytopathic effect in infected human Hep2 cells after 5 days by CCK8 assay.
`NCCNc1cc(N2CCCc3ccccc3C2)nc2ccccc12`: the IC50 amounted to 2300 nM.
